Results as given in patent US20240262815A1, “HETEROARYL DERIVATIVE, METHOD FOR PREPARING SAME, AND PHARMACEUTICAL COMPOSITION COMPRISING SAME AS ACTIVE INGREDIENT” (VORONOI INC., priority 2021, published 2024).

Experiments:
SK-BR-3 cancer cells = test: Inhibitory activity against proliferation of SK-BR-3 cancer cells (CellTiter-Glo); assay type: cell-based; settings: Homo sapiens, SK-BR-3, 120 h, ErbB2-overexpressing SK-BR-3 cells, 120 hours after treatment
How it was run: (§1)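 GI50 derived from % growth relative to control, measured by CellTiter-Glo luminescence after 120 h compound exposure (12 concentrations, 0.2 nM-5 μM final, n=3). BT-474 grown in RPMI-1640/20% FBS, SK-BR-3 in McCOY'S 5A/10% FBS; seeding 48 h pre-treatment.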

BT-474 cancer cells = test: Inhibitory activity against proliferation of BT-474 cancer cells (CellTiter-Glo); assay type: cell-based; settings: Homo sapiens, BT-474 ErbB2-overexpressing cancer cells, 120 hours after treatment
How it was run: as §1

Row | SMILES | GI50 (SK-BR-3 cancer cells) [nM] | GI50 (BT-474 cancer cells) [nM]
1 | C=CC(=O)Nc1cc(Nc2cc(N3OCC[C@@H]3c3cccc(-c4cccc(F)c4)c3)ncn2)c(OC)cc1N1CCN(CCN(C)C)CC1 [Example 304, (R)-N-(2-(4-(2-(dimethylamino)-ethyl)piperazin-1-yl)-5-((6-(3-(3′-fluoro-[1,1′-biphen-yl]-3-yl)isoxazol-idin-2-yl)pyrim-idin-4-yl)amino)-4-methoxyphenyl)-acrylamide] | < 50 | < 50
2 | C=CC(=O)Nc1cc(Nc2cc(N3OCC[C@@H]3c3cccc(C#CC(C)(C)C)c3)ncn2)c(OC)cc1N(C)CCN(C)C [Example 305, (R)-N-(2-((2-(dimethylamino)-ethyl)(methyl)-amino)-5-((6-(3-(3-(3,3-dimethyl-but-1-yn-1-yl)-phenyl)isoxazol-idin-2-yl)pyrim-idin-4-yl)amino)-4-methoxyphenyl)-acrylamide] | < 50 | < 50
3 | C=CC(=O)Nc1cc(Nc2cc(N3OCC[C@@H]3c3cccc(-c4cccc(F)c4)c3)ncn2)c(OC)cc1N1C[C@H]2C[C@@H]1CN2C [Example 306, N-(5-((6-((R)-3-(3′-fluoro-[1,1′-biphenyl]-3-yl)-isoxazolidin-2-yl)-pyrimidin-4-yl)-amino)-4-meth-oxy-2-((1R,4R)-5-methyl-2,5-diaza-bicyclo[2.2.1]-heptan-2-yl)phen-yl)acrylamide] | < 50 | < 50
4 | C=CC(=O)Nc1cc(Nc2cc(N3OCC[C@@H]3c3cccc(-c4cccc(F)c4)c3)ncn2)c(OC)cc1N1CCN(C)[C@@H](C)C1 [Example 307, N-(2-((S)-3,4-dimethylpiperazin-1-yl)-5-((6-((R)-3-(3′-fluoro-[1,1′-biphenyl]-3-yl)-isoxazolidin-2-yl)-pyrimidin-4-yl)-amino)-4-methoxy-phenyl)acrylamide] | < 50 | < 50
5 | C=CC(=O)Nc1cc(Nc2cc(N3OCC[C@@H]3c3ccc(F)c(-c4cccc(F)c4)c3)ncn2)c(OC)cc1N1CCN(C)CC1 [Example 308, (R)-N-(5-((6-(3-(3′,6-difluoro-[1,1′-biphenyl]-3-yl)-isoxazolidin-2-yl)-pyrimidin-4-yl)-amino)-4-methoxy-2-(4-methylpiper-azin-1-yl)phenyl)-acrylamide] | < 50 | < 50
6 | C=CC(=O)Nc1cc(Nc2cc(N3OCC[C@@H]3c3cccc(C#CC(C)(C)O)c3)ncn2)c(OC)cc1N(C)CCN(C)C [Example 309, (R)-N-(2-((2-(dimethylamino)-ethyl)(methyl)-amino)-5-((6-(3-(3-(3-hydroxy-3-methylbut-1-yn-1-yl)phenyl)isoxazol-idin-2-yl)pyrim-idin-4-yl)amino)-4-methoxyphen-yl)acrylamide] | < 50 | < 50
7 | C=CC(=O)Nc1cc(Nc2cc(N3OCC[C@@H]3c3ccc(F)c(-c4cccc(F)c4)c3)ncn2)c(OC)cc1N(C)CCN(C)C [Example 310, (R)-N-(5-((6-(3-(3′,6-difluoro-[1,1′-biphenyl]-3-yl)-isoxazolidin-2-yl)-pyrimidin-4-yl)-amino)-2-((2-(dimethylamino)-ethyl)(methyl)-amino)-4-methoxy-phenyl)acrylamide] | < 50 | < 50
8 | C=CC(=O)Nc1cc(Nc2cc(N3OCC[C@@H]3c3cccc(C#Cc4cccc(F)c4)c3)ncn2)c(OC)cc1N1CCN(C)CC1 [Example 314, (R)-N-(5-((6-(3-(3-((3-fluorophen-yl)ethynyl)phenyl)-isoxazolidin-2-yl)-pyrimidin-4-yl)-amino)-4-methoxy-2-(4-methylpiper-azin-1-yl)phenyl)-acrylamide] | 50 to 500 | 50 to 500
9 | C=CC(=O)Nc1cc(Nc2cc(N3OCC[C@@H]3c3cccc(C#Cc4cccc(O)c4)c3)ncn2)c(OC)cc1N1CCN(C)CC1 [Example 315, (R)-N-(5-((6-(3-(3-((3-hydroxy-phenyl)ethynyl)-phenyl)isoxazol-idin-2-yl)pyrim-idin-4-yl)amino)-4-methoxy-2-(4-methylpiperazin-1-yl)phenyl)acryl-amide] | 500 to 5000 | 50 to 500
10 | C=CC(=O)Nc1cc(Nc2cc(N3OCC[C@@H]3c3cccc(-c4cccc(F)c4)c3)ncn2)c(OC)cc1N1CCC(N2CCC2)CC1 [Example 317, (R)-N-(2-(4-(azeti-din-1-yl)piperidin-1-yl)-5-((6-(3-(3′-fluoro-[1,1′-biphen-yl]-3-yl)isoxazol-idin-2-yl)pyrim-idin-4-yl)amino)-4-methoxyphen-yl)acrylamide] | < 50 | < 50
11 | C=CC(=O)Nc1cc(Nc2cc(N3OCC[C@@H]3c3cccc(-c4cccc(F)c4)c3)ncn2)c(OC)cc1N1CCN2CCCC2C1 (stereo partly drawn) [Example 318, N-(5-((6-((R)-3-(3′-fluoro-[1,1′-biphenyl]-3-yl)-isoxazolidin-2-yl)-pyrimidin-4-yl)-amino)-2-(hexa-hydropyrrolo[1,2-a]pyrazin-2(1H)-yl)-4-methoxy-phenyl)acrylamide] | 50 to 500 | < 50
12 | C=CC(=O)Nc1cc(Nc2cc(N3OCC[C@@H]3c3cccc(-c4cccc(F)c4)c3)ncn2)c(OC)cc1N1CCN(C2CC2)[C@@H](C)C1 [Example 320, N-(2-((S)-4-cyclo-propyl-3-methyl-piperazin-1-yl)-5-((6-((R)-3-(3′-fluoro-[1,1′-biphen-yl]-3-yl)isoxazol-idin-2-yl)pyrim-idin-4-yl)amino)-4-methoxyphen-yl)acrylamide] | < 50 | < 50
13 | C=CC(=O)Nc1cc(Nc2cc(N3OCC[C@@H]3c3cccc(-c4cccc(F)c4)c3)ncn2)c(OC)cc1N1CC2(C1)CN(S(C)(=O)=O)C2 [Example 322, (R)-N-(5-((6-(3-(3′-fluoro-[1,1′-biphenyl]-3-yl)-isoxazolidin-2-yl)-pyrimidin-4-yl)-amino)-4-methoxy-2-(6-(methylsulfon-yl)-2,6-diazaspiro-[3.3]heptan-2-yl)-phenyl)acrylamide] | < 50 | < 50
14 | C=CC(=O)Nc1cc(Nc2cc(N3OCC[C@@H]3c3cccc(-c4cccc(F)c4)c3)ncn2)c(OC)cc1N1CC2(CN(C(=O)COC)C2)C1 [Example 323, (R)-N-(5-((6-(3-(3′-fluoro-[1,1′-biphenyl]-3-yl)-isoxazolidin-2-yl)-pyrimidin-4-yl)-amino)-4-methoxy-2-(6-(2-methoxy-acetyl)-2,6-diaza-spiro[3.3]heptan-2-yl)phenyl)acryl-amide] | 50 to 500 | < 50
15 | C=CC(=O)Nc1cc(Nc2cc(N3OCC[C@@H]3c3cccc(-c4cccc(F)c4)c3)ncn2)c(OC)cc1N1CCC(N2CCN(S(C)(=O)=O)CC2)CC1 [Example 324, (R)-N-(5-((6-(3-(3′-fluoro-[1,1′-biphenyl]-3-yl)-isoxazolidin-2-yl)-pyrimidin-4-yl)-amino)-4-methoxy-2-(4-(4-(methyl-sulfonyl)piperazin-1-yl)piperidin-1-yl)-phenyl)acrylamide] | < 50 | < 50
16 | C=CC(=O)Nc1cc(Nc2cc(N3OCCC3c3cccc(OCc4ccccn4)c3)ncn2)c(OC)cc1N(C)CCN(C)C (centres unmarked) [Example compound 95, N-(2-((2-(dimethylamino)ethyl)(methyl)amino)-4-methoxy-5-((6-(3-(3-(pyridin-2-ylmethoxy)phenyl)isoxazolidin-2-yl)pyrimidin-4-yl)amino)phenyl)acrylamide] | < 50 | < 50
17 | C=CC(=O)Nc1cc(Nc2cc(N3OCCC3c3cccc(OCc4ccccn4)c3)ncn2)c(OC)cc1N1CCN(C)CC1 (centres unmarked) [Example compound 96, N-(4-methoxy-2-(4-methylpiperazin-1-yl)-5-((6-(3-(3-(pyridin-2-ylmethoxy)phenyl)isoxazolidin-2-yl)pyrimidin-4-yl)amino)phenyl)acrylamide] | < 50 | < 50
18 | C=CC(=O)Nc1cc(Nc2cc(N3OCCC3c3cccc(OCc4ccccn4)c3)ncn2)c(OC)cc1N1CCC(N2CCN(C3CC3)CC2)CC1 (centres unmarked) [Example compound 98, N-(2-(4-(4-cyclopropylpiperazin-1-yl)piperidin-1-yl)-4-methoxy-5-((6-(3-(3-(pyridin-2-ylmethoxy)phenyl)isoxazolidin-2-yl)pyrimidin-4-yl)amino)phenyl)acrylamide] | < 50 | < 50
19 | C=CC(=O)Nc1cc(Nc2cc(N3OCCC3c3ccc(Cl)c(OCc4cccc(F)c4)c3)ncn2)c(OC)cc1N1CCC(N2CCN(C3CC3)CC2)CC1 (centres unmarked) [Example compound 116, N-(5-((6-(3-(4-chloro-3-((3-fluorobenzyl)oxy)phenyl)isoxazolidin-2-yl)pyrimidin-4-yl)amino)-2-(4-(4-cyclopropylpiperazin-1-yl)piperidin-1-yl)-4-methoxyphenyl)acrylamide] | < 50 | 50 to 500
20 | C=CC(=O)Nc1cc(Nc2cc(N3OCC[C@@H]3c3cccc(-c4cccs4)c3)ncn2)c(OC)cc1N1CCC(N2CCN(C3CC3)CC2)CC1 [Example compound 135, (R)-N-(2-(4-(4-cyclopropylpiperazin-1-yl)piperidin-1-yl)-4-methoxy-5-((6-(3-(3-(thiophen-2-yl)phenyl)isoxazolidin-2-yl)pyrimidin-4-yl)amino)phenyl)acrylamide] | < 50 | < 50
21 | C=CC(=O)Nc1cc(Nc2cc(N3OCCC3c3ccc(F)c(OCc4cccc(F)c4)c3)ncn2)c(OC)cc1N1CCC(N2CCN(C3CC3)CC2)CC1 (centres unmarked) [Example compound 150, N-(2-(4-(4-cyclopropylpiperazin-1-yl)piperidin-1-yl)-5-((6-(3-(4-fluoro-3-((3-fluorobenzyl)oxy)phenyl)isoxazolidin-2-yl)pyrimidin-4-yl)amino)-4-methoxyphenyl)acrylamide] | < 50 | < 50
22 | C=CC(=O)Nc1cc(Nc2cc(N3OCCC3c3ccc(F)c(OCc4cccc(F)c4)c3)ncn2)c(OC)cc1N1CCN(C)CC1 (centres unmarked) [Example compound 151, N-(5-((6-(3-(4-fluoro-3-((3-fluorobenzyl)oxy)phenyl)isoxazolidin-2-yl)pyrimidin-4-yl)amino)-4-methoxy-2-(4-methylpiperazin-1-yl)phenyl)acrylamide] | < 50 | < 50
